The target in data set [1] is T1, Cytochrome P450 3A4 (Homo sapiens, UniProt P08684). The following applies: Potency.
The target in data set [2] is T2, Apoptotic protease-activating factor 1 (Homo sapiens, UniProt O14727).
T2 sequence (O14727 whole entry): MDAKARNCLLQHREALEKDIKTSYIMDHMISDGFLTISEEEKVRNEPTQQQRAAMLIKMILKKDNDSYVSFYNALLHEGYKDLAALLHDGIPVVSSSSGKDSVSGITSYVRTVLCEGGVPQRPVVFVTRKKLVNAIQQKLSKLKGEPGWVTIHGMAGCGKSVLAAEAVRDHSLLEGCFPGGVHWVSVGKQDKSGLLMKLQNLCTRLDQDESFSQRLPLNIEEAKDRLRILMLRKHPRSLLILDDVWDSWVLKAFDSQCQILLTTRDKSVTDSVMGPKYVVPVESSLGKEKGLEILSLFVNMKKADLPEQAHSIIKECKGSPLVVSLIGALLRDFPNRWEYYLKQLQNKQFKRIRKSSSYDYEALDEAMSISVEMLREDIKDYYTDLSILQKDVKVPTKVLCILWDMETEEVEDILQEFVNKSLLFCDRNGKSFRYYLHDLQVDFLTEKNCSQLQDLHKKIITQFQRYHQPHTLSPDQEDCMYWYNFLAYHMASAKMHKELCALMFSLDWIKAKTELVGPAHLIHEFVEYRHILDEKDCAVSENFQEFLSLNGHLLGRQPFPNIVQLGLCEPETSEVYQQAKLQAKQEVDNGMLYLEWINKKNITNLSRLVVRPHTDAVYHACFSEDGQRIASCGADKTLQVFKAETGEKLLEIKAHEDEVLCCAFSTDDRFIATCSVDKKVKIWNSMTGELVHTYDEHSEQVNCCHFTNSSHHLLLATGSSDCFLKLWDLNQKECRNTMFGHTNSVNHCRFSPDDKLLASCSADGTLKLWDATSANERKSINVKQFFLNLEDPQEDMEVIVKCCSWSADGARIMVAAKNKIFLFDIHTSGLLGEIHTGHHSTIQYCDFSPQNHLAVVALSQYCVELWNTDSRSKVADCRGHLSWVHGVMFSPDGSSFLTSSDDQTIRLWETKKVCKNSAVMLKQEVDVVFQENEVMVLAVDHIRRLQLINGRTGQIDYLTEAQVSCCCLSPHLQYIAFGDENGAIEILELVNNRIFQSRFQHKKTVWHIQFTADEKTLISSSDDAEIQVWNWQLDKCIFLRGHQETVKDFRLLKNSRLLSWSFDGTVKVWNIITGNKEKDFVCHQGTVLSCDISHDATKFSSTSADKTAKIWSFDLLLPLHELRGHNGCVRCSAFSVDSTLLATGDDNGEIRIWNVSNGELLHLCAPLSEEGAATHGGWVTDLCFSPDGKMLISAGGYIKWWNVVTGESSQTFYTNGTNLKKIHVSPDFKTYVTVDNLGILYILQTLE
The class given is functional.

Another data set addresses Nonstructural protein 1 (Influenza A virus, UniProt Q194T2). Format: functional, Influenza A virus (A/California/07/2009(H1N1)).
The next data set concerns the target T3, Protein skinhead-1 (Caenorhabditis elegans, UniProt P34707).
T3 sequence (P34707 whole entry): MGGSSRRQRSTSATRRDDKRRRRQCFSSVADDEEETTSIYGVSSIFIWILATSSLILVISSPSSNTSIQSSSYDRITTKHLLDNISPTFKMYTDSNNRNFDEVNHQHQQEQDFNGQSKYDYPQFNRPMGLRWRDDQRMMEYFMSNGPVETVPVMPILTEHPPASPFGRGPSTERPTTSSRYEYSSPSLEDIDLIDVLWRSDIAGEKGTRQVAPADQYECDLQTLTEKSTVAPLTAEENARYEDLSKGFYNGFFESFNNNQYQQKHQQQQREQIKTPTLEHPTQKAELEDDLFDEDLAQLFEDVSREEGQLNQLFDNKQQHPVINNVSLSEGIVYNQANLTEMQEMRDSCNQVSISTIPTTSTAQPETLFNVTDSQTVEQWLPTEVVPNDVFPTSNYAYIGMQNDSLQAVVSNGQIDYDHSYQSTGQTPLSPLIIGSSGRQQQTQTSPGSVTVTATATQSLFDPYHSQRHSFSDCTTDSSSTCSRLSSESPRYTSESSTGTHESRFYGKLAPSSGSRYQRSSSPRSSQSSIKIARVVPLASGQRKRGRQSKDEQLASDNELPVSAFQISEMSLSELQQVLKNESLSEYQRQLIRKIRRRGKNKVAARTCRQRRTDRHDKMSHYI
The class given is functional.

A further data set addresses Cytochrome P450 2C9 (Homo sapiens, UniProt P11712).
In data set [3] the target is T1, Cytochrome P450 3A4.
Data set [4] is described as follows: cells. Format: functional, cell-based.
Another data set has as its target T4, Estrogen receptor (Homo sapiens, UniProt P03372).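 Note: potency for inhibiting coactivator peptide recruitment to the receptor.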
T4 sequence (P03372 whole entry): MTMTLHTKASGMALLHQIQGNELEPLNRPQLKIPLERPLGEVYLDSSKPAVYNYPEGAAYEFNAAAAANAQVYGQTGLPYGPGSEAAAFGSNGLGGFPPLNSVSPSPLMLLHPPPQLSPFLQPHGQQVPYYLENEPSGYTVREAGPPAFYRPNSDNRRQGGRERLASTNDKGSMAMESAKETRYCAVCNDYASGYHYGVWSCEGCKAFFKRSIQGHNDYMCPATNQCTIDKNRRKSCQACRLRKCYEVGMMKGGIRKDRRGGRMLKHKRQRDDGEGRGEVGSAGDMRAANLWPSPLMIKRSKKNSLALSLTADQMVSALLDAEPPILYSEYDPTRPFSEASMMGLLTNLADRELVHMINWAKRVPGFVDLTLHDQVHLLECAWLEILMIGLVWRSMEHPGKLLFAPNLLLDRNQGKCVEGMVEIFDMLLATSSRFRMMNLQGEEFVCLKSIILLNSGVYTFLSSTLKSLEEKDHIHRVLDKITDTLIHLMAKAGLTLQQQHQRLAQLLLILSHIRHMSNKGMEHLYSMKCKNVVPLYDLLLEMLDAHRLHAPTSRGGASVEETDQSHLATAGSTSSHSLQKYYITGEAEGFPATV

In data set [5] the target is T5, Zinc finger protein mex-5 (Caenorhabditis elegans, UniProt Q9XUB2).
T5 sequence (Q9XUB2 whole entry): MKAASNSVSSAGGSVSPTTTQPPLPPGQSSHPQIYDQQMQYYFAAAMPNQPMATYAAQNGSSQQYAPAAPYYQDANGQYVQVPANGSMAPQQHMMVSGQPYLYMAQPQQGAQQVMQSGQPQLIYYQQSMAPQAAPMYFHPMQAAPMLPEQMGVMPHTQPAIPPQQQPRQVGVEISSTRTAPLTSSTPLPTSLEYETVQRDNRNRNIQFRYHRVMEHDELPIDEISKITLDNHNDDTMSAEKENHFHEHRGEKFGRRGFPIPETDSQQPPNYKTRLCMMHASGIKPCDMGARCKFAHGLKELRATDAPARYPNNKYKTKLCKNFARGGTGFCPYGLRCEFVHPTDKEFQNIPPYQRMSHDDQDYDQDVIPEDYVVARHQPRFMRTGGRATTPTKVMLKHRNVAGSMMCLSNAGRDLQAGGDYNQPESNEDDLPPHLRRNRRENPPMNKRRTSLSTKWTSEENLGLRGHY
Kind of data set: MEX-5/TCR-2 RNA interaction inhibitors, dose response, biochemical, C. elegans, fluorescence polarization (AID 1960).

A short description of data set [6]: cells. Format: functional, cell-based. The source holds these as a separate data set.
Data set [7] addresses T6, RNA-binding protein pos-1 (Caenorhabditis elegans, UniProt G5EF15).
T6 sequence (G5EF15 whole entry): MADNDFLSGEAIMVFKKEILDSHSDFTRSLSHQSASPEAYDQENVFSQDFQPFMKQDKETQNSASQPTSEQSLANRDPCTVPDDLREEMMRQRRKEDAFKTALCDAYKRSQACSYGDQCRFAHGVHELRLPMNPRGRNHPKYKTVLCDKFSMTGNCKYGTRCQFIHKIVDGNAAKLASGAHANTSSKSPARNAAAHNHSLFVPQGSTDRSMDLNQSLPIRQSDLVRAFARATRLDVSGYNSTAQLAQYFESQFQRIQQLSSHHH
Kind of data set: inhibitors of POS-1/mex-3 RNA binding, dose response, biochemical, fluorescence polarization (AID 1964).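 Note: purified POS-1 fused to maltose binding protein made in E. coli; potency of compounds blocking POS-1 binding to fluorescent RNA.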

The next data set concerns the target Cytochrome P450 2D6 (Homo sapiens, UniProt P10635).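 Note: CYP2D6 member of a cytochrome P450 panel assay.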
Another data set concerns H9c2. Put plainly: cells. Format: functional, cell-based. The following applies: Rattus norvegicus, H9c2, Myocardium.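 Note: confirmatory concentration-response retest of ultra-high-throughput screening hits for modulation of myocardial damage; cell death induced by hydrogen peroxide oxidative stress; compound pretreatment for 60 min then peroxide exposure for 2 h; potency is for protecting the cells against peroxide damage rather than for killing them.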
A short description of data set [8]: HepG2 cell cytotoxicity, dose response, cytotoxicity control, cherry-picked samples (AID 1159577). The class given is functional, cell-based.
Data set [9] can be described thus: P. falciparum Dd2 growth inhibitors, dose response, SYBR Green, cherry-picked samples (AID 1159567). The class given is functional, cell-based.
Another data set deals with Paired box protein Pax-8 (Homo sapiens, UniProt Q06710). Kind of data set: inhibitors of PAX8-driven TPO luciferase reporter, dose response, RMG-I cells, cherry-pick (AID 687027).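 Note: luciferase reporter driven by Pax8 target thyroperoxidase promoter measured by SteadyGlo luminescence.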 The class given is functional, cell-based.
Data set [10] can be described thus: inhibitors of HIV Env-driven cell fusion, dose response, cherry-pick (AID 652057). The class given is functional, cell-based.

Active and inactive are the calls of the source.

Among the data in ChEMBL document CHEMBL1201862, “PubChem BioAssay data set” (2004) are AC50, IC50 and EC50 values, retold here.

Sequence of Nonstructural protein 1 (Q194T2 whole entry): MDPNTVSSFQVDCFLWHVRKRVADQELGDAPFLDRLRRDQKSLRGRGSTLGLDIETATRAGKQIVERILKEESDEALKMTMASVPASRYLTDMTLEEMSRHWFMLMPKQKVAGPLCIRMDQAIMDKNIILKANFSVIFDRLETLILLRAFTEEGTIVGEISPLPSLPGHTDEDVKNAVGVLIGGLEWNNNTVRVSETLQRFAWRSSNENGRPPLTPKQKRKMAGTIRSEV
T1 sequence (P08684 whole entry): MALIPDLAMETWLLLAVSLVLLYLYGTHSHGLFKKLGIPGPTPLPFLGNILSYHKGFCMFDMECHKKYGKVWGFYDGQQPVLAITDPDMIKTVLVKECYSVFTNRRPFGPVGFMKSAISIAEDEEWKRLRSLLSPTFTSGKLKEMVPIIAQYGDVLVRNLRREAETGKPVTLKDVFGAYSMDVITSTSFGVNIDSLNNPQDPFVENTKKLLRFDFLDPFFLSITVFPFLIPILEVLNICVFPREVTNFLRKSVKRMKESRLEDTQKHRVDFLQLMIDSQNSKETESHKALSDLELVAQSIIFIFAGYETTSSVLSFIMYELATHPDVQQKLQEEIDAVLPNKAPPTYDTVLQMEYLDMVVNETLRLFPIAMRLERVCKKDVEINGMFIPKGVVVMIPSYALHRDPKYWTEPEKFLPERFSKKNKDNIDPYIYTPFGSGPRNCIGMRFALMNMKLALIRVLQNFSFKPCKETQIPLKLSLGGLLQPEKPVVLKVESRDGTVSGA
Sequence of Cytochrome P450 2C9 (P11712 whole entry): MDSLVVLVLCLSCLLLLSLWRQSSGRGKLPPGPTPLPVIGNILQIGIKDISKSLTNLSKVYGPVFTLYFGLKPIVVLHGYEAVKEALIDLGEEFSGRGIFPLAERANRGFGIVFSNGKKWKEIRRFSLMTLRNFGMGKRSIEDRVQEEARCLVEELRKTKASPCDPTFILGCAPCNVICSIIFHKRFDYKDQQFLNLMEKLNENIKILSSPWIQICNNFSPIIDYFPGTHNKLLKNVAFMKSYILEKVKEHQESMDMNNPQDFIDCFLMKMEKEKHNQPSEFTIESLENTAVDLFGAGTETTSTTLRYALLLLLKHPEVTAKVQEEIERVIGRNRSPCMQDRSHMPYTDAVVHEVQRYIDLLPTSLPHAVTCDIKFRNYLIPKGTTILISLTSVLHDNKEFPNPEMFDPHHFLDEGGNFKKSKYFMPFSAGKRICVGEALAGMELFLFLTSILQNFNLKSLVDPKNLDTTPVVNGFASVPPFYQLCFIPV
Sequence of Paired box protein Pax-8 (Q06710 whole entry, the tested form may be a part): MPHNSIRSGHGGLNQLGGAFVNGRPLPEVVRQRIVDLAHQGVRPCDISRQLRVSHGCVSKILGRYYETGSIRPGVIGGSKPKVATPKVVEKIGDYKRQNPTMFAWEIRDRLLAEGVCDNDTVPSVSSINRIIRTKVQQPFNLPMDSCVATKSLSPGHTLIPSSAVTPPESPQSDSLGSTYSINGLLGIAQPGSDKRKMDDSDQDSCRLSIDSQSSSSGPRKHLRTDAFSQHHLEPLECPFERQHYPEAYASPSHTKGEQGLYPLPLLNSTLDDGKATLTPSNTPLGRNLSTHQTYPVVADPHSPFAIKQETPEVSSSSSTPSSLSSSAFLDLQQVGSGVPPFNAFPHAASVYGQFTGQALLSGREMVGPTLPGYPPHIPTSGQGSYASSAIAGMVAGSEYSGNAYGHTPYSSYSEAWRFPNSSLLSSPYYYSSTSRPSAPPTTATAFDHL
Sequence of Cytochrome P450 2D6 (P10635 whole entry): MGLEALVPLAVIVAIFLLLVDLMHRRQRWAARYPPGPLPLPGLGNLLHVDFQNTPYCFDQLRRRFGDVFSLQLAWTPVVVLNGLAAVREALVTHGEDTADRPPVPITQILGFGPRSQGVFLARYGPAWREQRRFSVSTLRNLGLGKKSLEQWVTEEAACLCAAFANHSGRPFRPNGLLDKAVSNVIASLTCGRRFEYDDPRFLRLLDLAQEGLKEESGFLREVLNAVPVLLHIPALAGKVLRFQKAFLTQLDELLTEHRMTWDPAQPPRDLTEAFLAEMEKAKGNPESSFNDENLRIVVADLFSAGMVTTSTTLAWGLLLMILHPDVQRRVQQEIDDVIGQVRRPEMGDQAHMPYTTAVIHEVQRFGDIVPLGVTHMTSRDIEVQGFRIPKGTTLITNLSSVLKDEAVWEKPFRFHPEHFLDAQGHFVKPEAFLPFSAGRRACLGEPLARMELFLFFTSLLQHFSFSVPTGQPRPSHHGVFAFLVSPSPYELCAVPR

With `N#Cc1ccc(C23CC4(C2)[C@H](CN(P(=O)(c2ccccc2)c2ccccc2)[C@@H]4c2ccccc2)C3c2ccc(Cl)nc2)cc1` (stereo partly specified), the concentration at half-maximal activity (AC50) at Cytochrome P450 3A4 [1] was 2 µM (inconclusive).
Take `C=C(C)Cc1c(C)c(C#N)c2nc3ccccc3n2c1O`: the IC50 in [2] is 38.6 µM (active).
Regarding `CC1=NN(c2ccccc2)C(=O)/C1=C\C=C1/N(C)c2ccccc2C1(C)C`, the IC50 on Nonstructural protein 1 is 11.8 µM (active); at Protein skinhead-1 it was 21.9 µM (active).
Turning to `C#C[C@]1(OC(C)=O)CCC2C3CCC4=CC(=O)CCC4C3CC[C@]21C` (stereo partly specified), at Cytochrome P450 3A4 [1], the AC50 is 39.8 µM (inconclusive).
On the same count and under the same terms, the result for `COC(=O)[C@]1(C)C[C@H]1[C@H](NP(=O)(c1ccccc1)c1ccccc1)c1ccccc1` reads 12.6 µM (inconclusive).
Regarding `CC[C@@H](c1ccccc1)n1c(=O)n2n(c1=O)[C@H]1[C@H](O)[C@H]3O[C@@H]3/C(=N/OC/C=C(\C)CCC=C(C)C)[C@@H]1CC2`, the results for the AC50 entry on Cytochrome P450 2C9 and at Cytochrome P450 3A4 [3] were “inconclusive” and 3.98 µM (inconclusive), respectively.
Regarding `COc1ccc(C2COc3c(ccc(O)c3OC)C2)c(OC)c1O` (stereo unspecified), at Cytochrome P450 3A4 [1], the concentration at half-maximal activity (AC50) was 25.1 µM (inconclusive).
Still for that read-out and setting: the same measure for `COc1cc(OC)c(C(C)=O)c(O)c1C`: 0.316 µM (inconclusive).
Take `c1ccc(-c2cn(C[C@H]3CC[C@@H]([C@@H]4CC[C@H](Cn5cc(-c6ccccn6)nn5)O4)O3)nn2)nc1`: the IC50 at Nonstructural protein 1 was 5.72 µM (active).
Take `CCC1=C2CC[C@H]3C(=O)N(C)C(=O)[C@H]3[C@H]2[C@@]2(C)C(=O)N(CC(=O)OC)C(=O)N2C1=O`: the AC50 at Cytochrome P450 3A4 [1] is 25.1 µM (inconclusive).
For the compound `CO[C@H]1COC(=O)C/C=C\[C@@H](C)COC(=O)[C@H]2CCCN2C(=O)C/C=C\[C@H]1C`, the AC50 result on Cytochrome P450 2C9 is reported as “inconclusive”.
For the compound `COc1ccc(-c2nnc(-c3cc4c(ccc5ccccc54)oc3=O)o2)cc1`, the concentration for a half-maximal effect (EC50) in “cells [4]” is > 350 µM (not active); in [5], > 300 µM (inconclusive); in the data set “cells [6]”, > 350 µM (not active); in data set [7] it was > 300 µM (not active). The IC50 on Estrogen receptor was 20 µM (active).
With `CCCCN=C(S)NNC(=O)c1csc2c1CCC(C)C2` (stereo unspecified), the AC50 result at Cytochrome P450 2C9 is “inconclusive”; on Cytochrome P450 2D6 it was 22.4 µM (inconclusive); at Cytochrome P450 3A4 [3] it was 15.8 µM (inconclusive).
`Cc1ccc(OCC(=O)N/N=C/c2cccc3cccnc23)cc1`: the half-inhibitory concentration (IC50) at Nonstructural protein 1 is 25.6 µM (active); in the data set on H9c2, 14.1 µM (active).
As for `C[C@@H]1CN([C@@H](C)CO)C(=O)c2ccccc2-c2ccccc2CO[C@H]1CN(C)Cc1ccccc1C(F)(F)F`, the AC50 was 7.72 µM (active) in data set [8], 2.97 µM (active) in [9] and 12.3 µM (active) at Paired box protein Pax-8.
Consider `C[C@H]1CN([C@@H](C)CO)C(=O)Cc2cc(NS(=O)(=O)c3ccccc3)ccc2O[C@@H]1CN(C)Cc1ccc(Cl)c(Cl)c1`, for which the half-maximal activity concentration (AC50) in data set [10] was 37.1 µM (active).
Still for that read-out and setting: the same measure for `Cc1ccc(S(=O)(=O)N(C)C[C@H]2Oc3cc(C4=CCCC4)ccc3S(=O)(=O)N([C@H](C)CO)C[C@H]2C)cc1`: 10.1 µM (active).
In the case of `Cc1ccccc1-c1ccc([C@H]2[C@@H]3CN(Cc4cccnc4)C[C@H]2N3)cc1`, the concentration at half-maximal activity (AC50) in [8] was 24.4 µM (active); in data set [9] it was 4.95 µM (active).
For `Cc1ccccc1-c1ccc([C@@H]2[C@@H]3CN(Cc4cccnc4)C[C@H]2N3)cc1` the same measures were 9.78 µM (active) and 1.19 µM (active).
For `N#Cc1cccc(-c2ccc([C@@H]3[C@@H]4CN(C(=O)Nc5ccc(C(F)(F)F)cc5)C[C@H]3N4)cc2)c1` the same measures were 10.5 µM (active) and 4.72 µM (active).
For `Cc1cccc(-c2ccc([C@H]3[C@@H](CO)N4CCCCN(S(=O)(=O)c5cccc(C)c5)C[C@H]34)cc2)c1`, in that order: 11.6 µM (active) and 1.87 µM (active).
